The molecules below were run against CCR2 (Homo sapiens (Human), UniProt P41597) (assay: MCP-1 Receptor Binding Assay in THP-1 Cells). Details: 0.5 nM 125I labeled MCP-1, 2 hours at 30° C., read-out: Inhibition of MCP-1 Binding IC50 MCP1B.
CCR2, sequence (P41597 whole entry): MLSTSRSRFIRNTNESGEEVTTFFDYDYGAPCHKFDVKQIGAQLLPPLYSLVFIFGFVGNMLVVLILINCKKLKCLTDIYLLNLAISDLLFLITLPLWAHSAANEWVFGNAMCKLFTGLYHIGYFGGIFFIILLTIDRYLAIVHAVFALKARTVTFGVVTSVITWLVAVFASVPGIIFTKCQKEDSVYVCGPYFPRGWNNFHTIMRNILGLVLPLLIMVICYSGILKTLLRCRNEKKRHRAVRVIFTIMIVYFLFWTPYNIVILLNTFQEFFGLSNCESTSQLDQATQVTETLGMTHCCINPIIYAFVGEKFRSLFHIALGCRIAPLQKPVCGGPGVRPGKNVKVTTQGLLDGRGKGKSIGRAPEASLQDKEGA
Work on `O=C(CNc1cc(C(F)(F)F)nc2ccc(C(F)(F)F)cc12)NC1CN([C@H]2CC[C@@](O)(c3nccs3)CC2)C1` [Example 24, 2-((2,6-bis(trifluoromethyl)quinolin-4-yl)amino)-N-(1((1r-4r)-4-hydroxy-4-(thiazol-2-yl)cyclohexyl)azetidin-3-yl)acetamide] yielded an IC50 of 28 nM.
With `NC(=O)c1cc(NCC(=O)NC2CN([C@H]3CC[C@@](O)(c4cncs4)CC3)C2)c2cc(C(F)(F)F)ccc2n1` [Example 62] the IC50 was 9 nM.
With `CC(C)[C@@H](O)[C@H]1CC[C@H](N2CC(NC(=O)CNc3cnnc4ccc(C(F)(F)F)cc34)C2)CC1` (racemic) [Example 158, N-(1-((1R,4r)-4-((R)-1-hydroxy-2-methylpropyl)cyclohexyl)azetidin-3-yl)-2-((6-(trifluoromethyl)cinnolin-4-yl)amino)acetamide] the IC50 was 2560 nM.
`O=C(CNc1ncnc2ccc(C(F)(F)F)cc12)NC1CN([C@H]2CC[C@@H](C3CCCC(=O)N3)CC2)C1` (stereo partly drawn) [Example 13, N-(1-((1S,4s)-4-(6-oxopiperidin-2-yl)cyclohexyl)azetidin-3-yl)-2-((6-(trifluoromethyl)quinazolin-4-yl)amino)acetamide] was tested, and the IC50 was 10 nM.
Work on `CC(=O)NC[C@H]1CC[C@@H](N2CC(NC(=O)CNc3ncnc4ccc(C(F)(F)F)cc34)C2)CC1` [Example 111, N-(1-((1s,4s)-4-(acetamidomethyl)cyclohexyl)azetidin-3-yl)-2-((6-(trifluoromethyl)quinazolin-4-yl)amino)acetamide] yielded an IC50 of 37 nM.
In the case of `CCC(NS(C)(=O)=O)[C@H]1CC[C@@H](N2CC(NC(=O)CNc3ncnc4ccc(C(F)(F)F)cc34)C2)CC1` (stereo partly drawn) [Example 139, N-(1-((1R,4s)-4-((S)-1-(methylsulfonamido)propyl)cyclohexyl)azetidin-3-yl)-2-((6-(trifluoromethyl)quinazolin-4-yl)amino)acetamide], the IC50 is reported as 1450 nM.
`O=C(CNc1ncnc2ccc(C(F)(F)F)cc12)NC1CN([C@H]2CC[C@@H](C3(O)CC=CC3)CC2)C1` [Example 28] gave an IC50 of 23 nM.
Molecule `[N-]=[N+]=NCC(O)[C@H]1CC[C@@H](N2CC(NC(=O)CNc3ncnc4ccc(C(F)(F)F)cc34)C2)CC1` (stereo partly drawn) [Example 19, N-(1-((1S,4s)-4-(2-azido-1-hydroxyethyl)cyclohexyl)azetidin-3-yl)-2-((6-(trifluoromethyl)quinazolin-4-yl)amino)acetamide] has an IC50 of 16 nM.
Molecule `CCC(OC(C)=O)[C@H]1CC[C@@H](N2CC(NC(=O)CNc3ncnc4ccc(C(F)(F)F)cc34)C2)CC1` (stereo partly drawn) [Example 100, 1-((1s,4S)-4-(3-(2-((6-(trifluoromethyl)quinazolin-4-yl)amino)acetamido)azetidin-1-yl)cyclohexyl)propyl acetate] has an IC50 of 28 nM.
`CCCC(=O)N(C)[C@H]1CC[C@@H](N2CC(NC(=O)CNc3ncnc4ccc(C(F)(F)F)cc34)C2)CC1` [Example 46, N-methyl-N-((1s,4s)-4-(3-(2-((6-(trifluoromethyl)quinazolin-4-yl)amino)acetamido)azetidin-1-yl)cyclohexyl)butyramide] gave an IC50 of 810 nM.
`CC(C)[C@@H](O)[C@H]1CC[C@@H](N2CC(NC(=O)CNc3nncc4ccc(C(F)(F)F)cc34)C2)CC1` (racemic) [Example 159, N-(1-((1R,4s)-4-((S)-1-hydroxy-2-methylpropyl)cyclohexyl)azetidin-3-yl)-2-((7-(trifluoromethyl)phthalazin-1-yl)amino)acetamide] showed an IC50 of 8290 nM.
`O=C(CNc1ncnc2ccc(C(F)(F)F)cc12)NC1CN([C@H]2CC[C@@H](CO)CC2)C1` [Example 109, N-(1-((1s,4s)-4-(hydroxymethyl)cyclohexyl)azetidin-3-yl)-2-((6-(trifluoromethyl)quinazolin-4-yl)amino)acetamide] was tested, and the IC50 was 58 nM.
For `CCC(O)[C@H]1CC[C@@H](N2CC(NC(=O)CNc3cnnc4ccc(C(F)(F)F)cc34)C2)CC1` (some centres unmarked) [Example 152, N-(1-(4-(1-hydroxypropyl)cyclohexyl)azetidin-3-yl)-2-(6-(trifluoromethyl)cinnolin-4-ylamino)acetamide], the IC50 was 530 nM.
Work on `O=C(CNc1ncnc2ccc(C(F)(F)F)cc12)NC1CN([C@H]2CC[C@@H]([C@@H](O)C3CC3)CC2)C1` [(+) 4, N-(1-((1S,4s)-4-(cyclopropyl(hydroxy)methyl)cyclohexyl)azetidin-3-yl)-2-((6-(trifluoromethyl)quinazolin-4-yl)amino)acetamide] yielded an IC50 of 24 nM.
With `CCNC(=O)C1CCC(N2CC(NC(=O)CNc3ncnc4ccc(C(F)(F)F)cc34)C2)CC1` (centres unmarked) [Example 127, N-ethyl-4-(3-(2-((6-(trifluoromethyl)quinazolin-4-yl)amino)acetamido)azetidin-1-yl)cyclohexanecarboxamide] the IC50 was 200 nM.
In the case of `Cc1ccc([C@]2(O)CC[C@H](N3CC(NC(=O)CNc4ncnc5ccc(C(F)(F)F)cc45)C3)CC2)cn1` [Example 75, N-(1-((1r,4r)-4-hydroxy-4-(6-methylpyridin-3-yl)cyclohexyl)azetidin-3-yl)-2-((6-(trifluoromethyl)quinazolin-4-yl)amino)acetamide], the IC50 is reported as 11 nM.
`CN(CC(=O)NC1CN([C@H]2CC[C@@](O)(c3nccs3)CC2)C1)c1ncnc2ccc(C(F)(F)F)cc12` [Example 64, N-(1-((1r,4r)-4-hydroxy-4-(thiazol-2-yl)cyclohexyl)azetidin-3-yl)-2-(methyl(6-(trifluoromethyl)quinazolin-4-yl)amino)acetamide] showed an IC50 of 830 nM.
`O=C(CNc1ncnc2ccc(C(F)(F)F)cc12)N[C@H]1C[C@@H](N2CCC(O)(c3cncs3)CC2)C1` [Example 161, N-((1s,3s)-3-(4-hydroxy-4-(thiazol-5-yl)piperidin-1-yl)cyclobutyl)-2-((6-(trifluoromethyl)quinazolin-4-yl)amino)acetamide] was tested, and the IC50 was over 25000 nM.
`CC[C@@H](O)C1CCC(N2CC(NC(=O)CNc3nccc4ccc(C(F)(F)F)cc34)C2)CC1` (stereo partly drawn) [Example 167, N-(1-((1R,4s)-4-(1-hydroxypropyl)cyclohexyl)azetidin-3-yl)-2-((7-(trifluoromethyl)isoquinolin-1-yl)amino)acetamide] was tested, and the IC50 was 44 nM.
`CCC([C@H]1CC[C@@H](N2CC(NC(=O)CNc3ncnc4ccc(C(F)(F)F)cc34)C2)CC1)N(C)C` (stereo partly drawn) [Example 137, N-(1-((1S,4s)-4-((R)-1-(dimethylamino)propyl)cyclohexyl)azetidin-3-yl)-2-(6-(trifluoromethyl)quinazolin-4-ylamino)acetamide] showed an IC50 of 5040 nM.
`CCC(OC)[C@H]1CC[C@@H](N2CC(NC(=O)CNc3ncnc4ccc(C(F)(F)F)cc34)C2)CC1` (some centres unmarked) [Example 120, N-(1-((1s,4s)-4-(1-methoxypropyl)cyclohexyl)azetidin-3-yl)-2-((6-(trifluoromethyl)quinazolin-4-yl)amino)acetamide] showed an IC50 of 83 nM.
`CCOC(=O)CC1CCC(N2CC(NC(=O)CNc3ncnc4ccc(C(F)(F)F)cc34)C2)CC1` (centres unmarked) [Example 122] was tested, and the IC50 was 120 nM.
Work on `O=C(CNc1ncnc2ccc(C(F)(F)F)cc12)NC1CN([C@H]2CC[C@@H](N3CCSCC3)CC2)C1` [Example 133, N-(1-((1s,4s)-4-thiomorpholinocyclohexyl)azetidin-3-yl)-2-((6-(trifluoromethyl)quinazolin-4-yl)amino)acetamide] yielded an IC50 of 200 nM.
Molecule `O=C(CNc1cc(C(F)(F)F)nc2ccc(C(F)(F)F)cc12)NC1CN([C@H]2CC[C@@H](n3ccccc3=O)CC2)C1` [Example 59, 2-((2,6-bis(trifluoromethyl)quinolin-4-yl)amino)-N-(1-((1s,4s)-4-(2-oxopyridin-1(2H)-yl)cyclohexyl)azetidin-3-yl)acetamide] has an IC50 of 130 nM.
`C=CCC(O)(CC=C)[C@H]1CC[C@@H](N2CC(NC(=O)CNc3ncnc4ccc(C(F)(F)F)cc34)C2)CC1` [Example 31, N-(1-((1s,4s)-4-(4-hydroxyhepta-1,6-dien-4-yl)cyclohexyl)azetidin-3-yl)-2-((6-(trifluoromethyl)quinazolin-4-yl)amino)acetamide] showed an IC50 of 300 nM.
For `O=C(CNc1ccnc2ccc(C(F)(F)F)cc12)NC1CN([C@H]2CC[C@@H](n3ccccc3=O)CC2)C1` [Example 58, N-(1-((1s,4s)-4-(2-oxopyridin-1(2H)-yl)cyclohexyl)azetidin-3-yl)-2-((6-(trifluoromethyl)quinolin-4-yl)amino)acetamide], the IC50 was 91 nM.
`CC(C)[C@H]1CC[C@@H](N2CC(NC(=O)CNc3ncnc4ccc(C(F)(F)F)cc34)C2)CC1` [Example 117, N-(1-((1s,4s)-4-isopropylcyclohexyl)azetidin-3-yl)-2-((6-(trifluoromethyl)quinazolin-4-yl)amino)acetamide] was tested, and the IC50 was 100 nM.
Molecule `CCC(NC(=O)OC)[C@H]1CC[C@@H](N2CC(NC(=O)CNc3ncnc4ccc(C(F)(F)F)cc34)C2)CC1` (stereo partly drawn) [Example 144, methyl ((S)-1-((1s,4R)-4-(3-(2-((6-(trifluoromethyl)quinazolin-4-yl)amino)acetamido)azetidin-1-yl)cyclohexyl)propyl)carbamate] has an IC50 of 640 nM.
Work on `O=C(CNc1ncnc2ccc(C(F)(F)F)cc12)NC1CN([C@H]2CC[C@@H](C3CCOCC3)CC2)C1` [Example 38, N-(1-((1s,4s)-4-(tetrahydro-2H-pyran-4-yl)cyclohexyl)azetidin-3-yl)-2-((6-(trifluoromethyl)quinazolin-4-yl)amino)acetamide] yielded an IC50 of 160 nM.
For `[2H][C@]1(N2CC(NC(=O)CNc3ncnc4ccc(C(F)(F)F)cc34)C2)CC[C@@H](C(O)C2CC2)CC1` (stereo partly drawn) [Example 5, N-(1-((1S,4s)-4-(cyclopropyl(hydroxy)methyl)1-deuterocyclohexyl)azetidin-3-yl)-2-((6-(trifluoromethyl)quinazolin-4-yl)amino)acetamide], the IC50 was 14 nM.
`CC(C)(C)C(O)[C@H]1CC[C@@H](N2CC(NC(=O)CNc3ncnc4ccc(C(F)(F)F)cc34)C2)CC1` (stereo partly drawn) [Example 98, N-(1-((1R,4s)-4-(1-hydroxy-2,2-dimethylpropyl)cyclohexyl)azetidin-3-yl)-2-((6-(trifluoromethyl)quinazolin-4-yl)amino)acetamide] was tested, and the IC50 was 753 nM.
Work on `NC[C@H]1CC[C@@H](N2CC(NC(=O)CNc3ncnc4ccc(C(F)(F)F)cc34)C2)CC1` [Example 116, N-(1-((1s,4s)-4-(aminomethyl)cyclohexyl)azetidin-3-yl)-2-((6-(trifluoromethyl)quinazolin-4-yl)amino)acetamide] yielded an IC50 of 240 nM.
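Also: THP-1 is a human monocytic cell line, and nonspecific binding was defined with 1 µM unlabeled MCP-1.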
